Source: PubChem BioAssay AID1963861 (Molecular Pharmacology Branch, DTP, NCI, 2024)

Tested on: 885724-159-R-J1-PDC KRAS PDC multicell spheroid viability
Test: Anticancer human tumor 885724-159-R-J1-PDC patient-derived pancreatic adenocarcinoma cell line growth inhibition [KRAS2]
Settings: for IC50: curve of first compound; for viability, T/C: stronger effect = lower value
Excerpt: Multicellular complex tumor spheroid response to RAS pathway inhibitors in combination with a targeted agents in patient-derived cell lines with oncogenic KRAS variants from multiple cancer types
A high-throughput screen of multi-cell type tumor spheroids was designed to identify active combinations of targeted small molecules and KRAS pathway inhibitors. Complex spheroids include a stromal component modeled by human endothelial cells (HUVEC) and fibroblasts modeled by human mesenchymal stem cells (MSCs). The concentration ranges selected for each drug and investigational agent were based upon clinically achievable concentrations if the clinical Cmax of the agent was known.
Compounds. The drugs and investigational agents: BI-3406 (NSC825286), BAY-293 (NSC824723), batoprotafib (TNO155; NSC825523), sotorasib (AMG 510; NSC818433), MRTX1257 (NSC819558), elimusertib (BAY 1895344; NSC800525), molibresib (GSK525762; NSC774829), temuterkib (LY3214996; NSC803410), venetoclax (NSC766270), alisertib (NSC759677), olaparib (NSC753686), talazoparib (NSC767125), erdafitinib (NSC781556), ipatasertib (NSC767898), cabozantinib (NSC761068), nintedanib (NSC756659), abemaciclib (NSC768073), docetaxel (NSC628503), trametinib (NSC758246), and sapanisertib (NSC764658) were obtained from the National Cancer Institute (NCI) Developmental Therapeutics Program Chemical Repository. The FDA-approved anticancer drug set is available from the Developmental Therapeutics Program. […] The stock solutions were prepared in dimethyl sulfoxide (DMSO, Sigma-Aldrich, St. Louis, MO, cat. D2650) at 800-fold the tested concentration and stored at -70 degrees C prior to their use. All drugs and investigational agents were tested over a range starting from a high concentration at or near the clinical Cmax and decreasing in half-log increments. If the clinical Cmax for an agent had not been determined, the highest concentration tested was 10 microM.
Cell Culture. All cells were maintained in an incubator at 37 degrees C and 5% CO2 with 95% humidity. The PDC lines were cultured according to standard operating procedures established by the NCI PDMR (https://pdmr.cancer.gov/sops/default.htm). Briefly, all PDCs were thawed and cultured in Matrigel-coated flasks prepared with a working solution of 1X Ham's F-12 nutrient mix, without supplementation (Invitrogen, Waltham, MA, cat. 11765054), 100 U/mL penicillin-streptomycin (Invitrogen, cat. 15140122), and 2.5% Matrigel (Corning Inc., Corning, NY, cat. 354248) for the first three passages. All PDCs were cultured in complete DMEM/F-12 media containing advanced DMEM/F-12 (Invitrogen, cat. 12634028), 4.9% defined fetal bovine serum, heat inactivated (HyClone Laboratories Inc., Logan, UT, cat. SH30070.03HI), 389 ng/mL hydrocortisone (Sigma-Aldrich, cat. H4001), 9.7 ng/mL human EGF recombinant protein (Invitrogen, cat. PHG0313), 23.4 microg/mL adenine (Sigma-Aldrich, cat. A2786), 97.3 U/mL penicillin-streptomycin (Invitrogen, cat. 15140122), 1.9 mM L-glutamine (Invitrogen, cat. 25030081), and 9.7 microM Y-27632 dihydrochloride (Tocris Bioscience, Bristol, United Kingdom, cat. 1254). The PDCs were cultured in complete DMEM/F12 media without 9.7 microM Y-27632 dihydrochloride for at least two passages prior to the screen. The established cell line HOP-62 was cultured in RPMI 1640 medium, HEPES (Invitrogen, cat. 22400105) with 10% defined fetal bovine serum (HyClone Laboratories Inc., cat. SH30070.03) and 2 mM L-glutamine (Invitrogen, cat. 25030081). The pooled donor HUVEC were cultured in endothelial cell growth medium 2 (PromoCell, Heidelberg, Germany, cat. C-22011) and the hMSC were cultured in mesenchymal stem cell growth medium 2 (PromoCell, cat. C-28009). For all experiments, HUVEC and hMSC were used at passages </=5, while the malignant cell lines were used at passages </=15. […]

[1] = second compound 0.1 µM, first compound 0.0316 µM
[2] = second compound 0.1 µM, first compound 0.1 µM
[3] = second compound 0.1 µM, first compound 0.316 µM
[4] = second compound 0.1 µM, first compound 1 µM
[5] = second compound 0.1 µM, first compound 3.16 µM
[6] = second compound 0.1 µM, first compound 10 µM
[7] = second compound 0.316 µM, first compound 0.0316 µM
[8] = second compound 0.316 µM, first compound 0.1 µM
[9] = second compound 0.316 µM, first compound 0.316 µM
[10] = second compound 0.316 µM, first compound 1 µM
[11] = second compound 0.316 µM, first compound 3.16 µM
[12] = second compound 0.316 µM, first compound 10 µM
[13] = second compound 1 µM, first compound 0.0316 µM
[14] = second compound 1 µM, first compound 0.1 µM
[15] = second compound 1 µM, first compound 0.316 µM
[16] = second compound 1 µM, first compound 1 µM
[17] = second compound 1 µM, first compound 3.16 µM
[18] = second compound 1 µM, first compound 10 µM
[19] = second compound 3.16 µM, first compound 0.0316 µM
[20] = second compound 3.16 µM, first compound 0.1 µM
[21] = second compound 3.16 µM, first compound 0.316 µM
[22] = second compound 3.16 µM, first compound 1 µM
[23] = second compound 3.16 µM, first compound 3.16 µM
[24] = second compound 3.16 µM, first compound 10 µM
[25] = second compound 10 µM, first compound 0.0316 µM
[26] = second compound 10 µM, first compound 0.1 µM
[27] = second compound 10 µM, first compound 0.316 µM
[28] = second compound 10 µM, first compound 1 µM
[29] = second compound 10 µM, first compound 3.16 µM
[30] = second compound 10 µM, first compound 10 µM
[31] = second compound 0.1 µM, first compound 0.01 µM
[32] = second compound 0.316 µM, first compound 0.01 µM
[33] = second compound 1 µM, first compound 0.01 µM
[34] = second compound 3.16 µM, first compound 0.01 µM
[35] = second compound 10 µM, first compound 0.01 µM
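Also: spheroids exposed to agents for 7 days before readout.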

| SMILES | IC50 (second compound 0.1 µM) [nM] | IC50 (second compound 0.316 µM) [nM] | IC50 (second compound 1 µM) [nM] | IC50 (second compound 3.16 µM) [nM] | IC50 (second compound 10 µM) [nM] | viability, T/C [1] [%] | viability, T/C [2] [%] | viability, T/C [3] [%] | viability, T/C [4] [%] | viability, T/C [7] [%] | viability, T/C [8] [%] | viability, T/C [9] [%] | viability, T/C [10] [%] | viability, T/C [13] [%] | viability, T/C [14] [%] | viability, T/C [15] [%] | viability, T/C [16] [%] | viability, T/C [19] [%] | viability, T/C [20] [%] | viability, T/C [21] [%] | other results |
| --- | --- | --- | --- | --- | --- | --- | --- | --- | --- | --- | --- | --- | --- | --- | --- | --- | --- | --- | --- | --- | --- |
| CC(C)NCC(C(=O)N1CCN(c2ncnc3c2C(C)CC3O)CC1)c1ccc(Cl)cc1 (stereo not given) + C=CC(=O)N1CCN(c2nc(=O)n(-c3c(C)ccnc3C(C)C)c3nc(-c4c(O)cccc4F)c(F)cc23)C(C)C1 | > 10000 | > 10000 | > 10000 | 3780 | 175 | 111 | 88 | 80.3 | 77.5 | 103 | 93.6 | 74.1 | 80.5 | 105 | 92.9 | 83.5 | 79.8 | 99.9 | 90.2 | 77.8 | viability, T/C [5]: 79.4%; viability, T/C [6]: 64.9%; viability, T/C [11]: 77.9%; viability, T/C [12]: 60.8%; viability, T/C [17]: 71.8%; viability, T/C [18]: 50.1%; viability, T/C [22]: 68.3%; viability, T/C [23]: 57.9%; viability, T/C [24]: 31.8%; viability, T/C [25]: 73.5%; viability, T/C [26]: 68.8%; viability, T/C [27]: 30%; viability, T/C [28]: 11.5%; viability, T/C [29]: 18.8%; viability, T/C [30]: 5.87% |
| CC1COCCN1c1cc(-c2ccnn2C)c2ccnc(-c3ccn[nH]3)c2n1 (stereo not given) + C=CC(=O)N1CCN(c2nc(=O)n(-c3c(C)ccnc3C(C)C)c3nc(-c4c(O)cccc4F)c(F)cc23)C(C)C1 | > 3160 | 2780 | 2410 | > 3160 | 222 | 92.4 | 69.2 | 56.2 | 49.2 | 84.6 | 68.2 | 58.3 | 49 | 83.8 | 66.9 | 60.2 | 47.8 | 92.1 | 66.2 | 58.9 | viability, T/C [31]: 111%; viability, T/C [5]: 55.2%; viability, T/C [32]: 104%; viability, T/C [11]: 51.5%; viability, T/C [33]: 106%; viability, T/C [17]: 51.4%; viability, T/C [34]: 93.7%; viability, T/C [22]: 49.4%; viability, T/C [23]: 54.1%; viability, T/C [35]: 71.7%; viability, T/C [25]: 65.7%; viability, T/C [26]: 55.9%; viability, T/C [27]: 46.7%; viability, T/C [28]: 45.6%; viability, T/C [29]: 42.7% |
| CCN1CCN(Cc2ccc(Nc3ncc(F)c(-c4cc(F)c5nc(C)n(C(C)C)c5c4)n3)nc2)CC1 + C=CC(=O)N1CCN(c2nc(=O)n(-c3c(C)ccnc3C(C)C)c3nc(-c4c(O)cccc4F)c(F)cc23)C(C)C1 | > 1000 | > 1000 | > 1000 | > 1000 | > 1000 | 99.3 | 92.6 | 87.2 | 92.6 | 102 | 95.1 | 101 | 107 | 106 | 101 | 106 | 104 | 104 | 101 | 110 | viability, T/C (second compound 0.1 µM, first compound 0.00316 µM): 116%; viability, T/C [31]: 98.6%; viability, T/C (second compound 0.316 µM, first compound 0.00316 µM): 114%; viability, T/C [32]: 104%; viability, T/C (second compound 1 µM, first compound 0.00316 µM): 112%; viability, T/C [33]: 116%; viability, T/C (second compound 3.16 µM, first compound 0.00316 µM): 114%; viability, T/C [34]: 122%; viability, T/C [22]: 114%; viability, T/C (second compound 10 µM, first compound 0.00316 µM): 72.6%; viability, T/C [35]: 84.2%; viability, T/C [25]: 84.8%; viability, T/C [26]: 85%; viability, T/C [27]: 88.8%; viability, T/C [28]: 80.2% |
| CCNC(=O)CC1N=C(c2ccc(Cl)cc2)c2cc(OC)ccc2-n2c(C)nnc21 (stereo not given) + C=CC(=O)N1CCN(c2nc(=O)n(-c3c(C)ccnc3C(C)C)c3nc(-c4c(O)cccc4F)c(F)cc23)C(C)C1 | > 10000 | 6680 | > 10000 | 2220 | 352 | 109 | 95.6 | 86.3 | 65.6 | 105 | 94.4 | 77.6 | 61.3 | 116 | 89.6 | 66.3 | 63.9 | 105 | 90.5 | 66.3 | viability, T/C [5]: 57%; viability, T/C [6]: 52.7%; viability, T/C [11]: 55.3%; viability, T/C [12]: 47.2%; viability, T/C [17]: 51.1%; viability, T/C [18]: 51.8%; viability, T/C [22]: 51.8%; viability, T/C [23]: 51.8%; viability, T/C [24]: 45.9%; viability, T/C [25]: 78%; viability, T/C [26]: 66%; viability, T/C [27]: 48.2%; viability, T/C [28]: 43.1%; viability, T/C [29]: 39.2%; viability, T/C [30]: 33.6% |
